This note sets out measurements from US10988523B2, “Modified lipidated Relaxin B chain peptides and their therapeutic use” (Sanofi, priority 2018, dated 2021).

The target in this assay is T1, RXFP1 (Homo sapiens, UniProt Q9HBX9).
T1 construct: OVCAR5 cells expressing endogenous RXFP1; endogenous in cells; host or cells: OVCAR5 cells
T1 sequence (Q9HBX9 1-757): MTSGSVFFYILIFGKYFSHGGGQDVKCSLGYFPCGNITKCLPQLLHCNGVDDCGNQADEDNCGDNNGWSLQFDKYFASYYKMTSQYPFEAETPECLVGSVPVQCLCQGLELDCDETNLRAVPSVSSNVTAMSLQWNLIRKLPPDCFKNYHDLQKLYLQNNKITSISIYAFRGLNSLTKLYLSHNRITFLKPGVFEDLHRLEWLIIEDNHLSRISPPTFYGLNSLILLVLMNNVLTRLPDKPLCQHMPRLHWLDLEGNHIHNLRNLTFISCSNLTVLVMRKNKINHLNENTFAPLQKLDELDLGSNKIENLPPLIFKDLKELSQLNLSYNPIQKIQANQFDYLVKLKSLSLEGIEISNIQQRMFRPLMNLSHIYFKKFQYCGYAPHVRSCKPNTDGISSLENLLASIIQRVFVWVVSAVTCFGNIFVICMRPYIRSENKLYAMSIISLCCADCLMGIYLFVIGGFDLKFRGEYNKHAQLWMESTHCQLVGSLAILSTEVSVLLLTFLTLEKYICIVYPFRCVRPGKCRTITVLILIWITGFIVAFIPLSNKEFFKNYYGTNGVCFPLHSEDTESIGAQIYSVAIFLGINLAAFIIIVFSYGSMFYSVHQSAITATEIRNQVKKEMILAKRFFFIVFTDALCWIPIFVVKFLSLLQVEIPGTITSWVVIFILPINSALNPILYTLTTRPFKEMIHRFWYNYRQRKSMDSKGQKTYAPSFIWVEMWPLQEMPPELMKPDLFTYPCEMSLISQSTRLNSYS
In words: OVCAR5 cAMP assay (HTRF), RXFP1 agonist activity. It counts as cell-based. As to conditions: for Emax: OVCAR-5, maximal cAMP relative to H2-relaxin maximum (100%), read-out: EMax, OVCAR 5 cells (cAMP); for EC50: OVCAR5 cells, cAMP HTRF, read-out: EC50 (nM), OVCAR 5 cells (cAMP). In outline: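 OVCAR5 cells (endogenous RXFP1) pretreated 40 min at 37° C with 1 mM IBMX, then exposed to peptides in serum-free medium for 30 min at 37° C. Lysate cAMP read by HTRF; EC50 from variable-slope sigmoidal fit; Emax as % of H2-relaxin maximal cAMP in same run.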

The structures appear in SMILES notation. *1 amine or outer side, *2 acyl side, *3 side chain or, on linkers, in order; H or OH if unused. Where a SMILES comes first, the peptide text is derived from it. Side-chain parts run from the residue outwards. [ ]: non-standard residue; d: D form. The star is where a group is joined. X14 = CCCCCCCCCCCCCCC(=O)N[C@@H](CCC(=O)N[C@@H](CCC(=O)N[C@@H](CCC(=O)NCCCC[C@H](NC(=O)CCC(=O)NCCCOCCOCCOCCCNC(=O)CCC(=O)NCCCOCCOCCOCCCNC(=O)CCC(=O)NCCCOCCOCCOCCCN*)C(N)=O)C(=O)O)C(=O)O)C(=O)O; X8 = CCCCCCCCCCCCCCCC(=O)N[C@@H](CCC(=O)N[C@@H](CCC(=O)N[C@@H](CCC(=O)NCCCOCCOCCOCCCNC(=O)CCC(=O)NCCCOCCOCCOCCCNC(=O)CCC(=O)NCCCOCCOCCOCCCN*)C(=O)O)C(=O)O)C(=O)O; X13 = CCCCCCCCCCCCCCCC(=O)N[C@@H](CCC(=O)N[C@@H](CCC(=O)N[C@@H](CCC(=O)NCCCC[C@H](NC(=O)COCC(=O)NCCCOCCOCCOCCCN*)C(N)=O)C(=O)O)C(=O)O)C(=O)O; PEG28 = NCCOCCOCCOCCOCCOCCOCCOCCOCCOCCOCCOCCOCCOCCOCCOCCOCCOCCOCCOCCOCCOCCOCCOCCOCCOCCOCCOCCOCCC(=O)O; PEG24 = NCCOCCOCCOCCOCCOCCOCCOCCOCCOCCOCCOCCOCCOCCOCCOCCOCCOCCOCCOCCOCCOCCOCCOCCOCCC(=O)O; Trp(5-OH) = N[C@@H](Cc1c[nH]c2ccc(O)cc12)C(=O)O; γGlu = O=C(O)[C@H](CCC(=O)[*:2])N[*:1]; Stearoyl = CCCCCCCCCCCCCCCCCC(=O)*; Palmitoyl = CCCCCCCCCCCCCCCC(=O)*; Suc = O=C(CCC(=O)[*:2])[*:1]; αMeK = C[C@](N)(CCCCN)C(=O)O; Nle = CCCC[C@H](N)C(=O)O; AEEA = NCCOCCOCC(=O)O; Aib = CC(C)(N)C(=O)O

A word on the Emax: it is the greatest response seen or fitted, relative to the assay's reference. Consider `CCCCCCCCCCCCCCC(=O)N[C@@H](CCC(=O)N[C@@H](CCC(=O)N[C@@H](CCC(=O)NCCCC[C@H](NC(=O)CCC(=O)NCCCOCCOCCOCCCNC(=O)CCC(=O)NCCCOCCOCCOCCCNC(=O)CCC(=O)NCCCOCCOCCOCCCNC(=O)[C@H](CCCCNC(C)=O)NC(=O)[C@H](C)NC(=O)[C@H](CCCNC(=N)N)NC(=O)[C@](C)(CCCCN)NC(=O)[C@H](CO)NC(=O)[C@H](Cc1ccccc1)NC(=O)[C@@H](NC(=O)[C@H](CO)NC(=O)[C@H](CCCC)NC(=O)CNC(=O)[C@H](CCC(=O)O)NC(=O)C(C)(C)NC(=O)C(C)(C)NC(=O)[C@@H](NC(=O)[C@H](CCCCNC(C)=O)NC(=O)[C@H](C)NC(=O)[C@H](CCCNC(=N)N)NC(=O)[C@@H](NC(=O)[C@H](CCCCN)NC(=O)[C@H](CCC(=O)O)NC(=O)[C@H](CCCNC(=N)N)NC(=O)CNC(=O)[C@H](CCC(=O)O)NC(=O)[C@H](CC(C)C)NC(C)=O)C(C)C)[C@@H](C)CC)[C@@H](C)O)C(N)=O)C(=O)O)C(=O)O)C(=O)O` [compound 188] (Ac-LEGREKVRAK(Ac)I[Aib][Aib]EG[Nle]STFS[αMeK]RAK(Ac)-X14), for which the Emax is 100%.

Turning to `CCCCCCCCCCCCCCCC(=O)N[C@@H](CCC(=O)N[C@@H](CCC(=O)N[C@@H](CCC(=O)NCCCC[C@H](NC(=O)CCOCCOCCOCCOCCOCCOCCOCCOCCOCCOCCOCCOCCOCCOCCOCCOCCOCCOCCOCCOCCOCCOCCOCCOCCNC(=O)[C@H](CCCCN)NC(=O)[C@H](CCCNC(=N)N)NC(=O)C(C)(C)NC(=O)[C@H](CO)NC(=O)[C@H](Cc1c[nH]c2ccccc12)NC(=O)[C@@H](NC(=O)[C@H](CO)NC(=O)[C@H](CCSC)NC(=O)CNC(=O)[C@H](CCC(=O)O)NC(=O)C(C)(C)NC(=O)C(C)(C)NC(=O)[C@@H](NC(=O)[C@H](CCC(N)=O)NC(=O)[C@H](C)NC(=O)[C@H](CCCNC(=N)N)NC(=O)[C@@H](NC(=O)[C@H](CCCCN)NC(=O)[C@H](CCC(=O)O)NC(=O)[C@H](CCCNC(=N)N)NC(=O)CNC(=O)[C@H](CCC(=O)O)NC(=O)[C@H](CC(C)C)NC(C)=O)C(C)C)[C@@H](C)CC)[C@@H](C)O)C(N)=O)C(=O)O)C(=O)O)C(=O)O` [compound 47] (Ac-LEGREKVRAQI[Aib][Aib]EGMSTWS[Aib]RK[PEG24]K([γGlu-γGlu-γGlu-Palmitoyl])-NH2), the Emax was determined as 100%.

As to `CCCCCCCCCCCCCCCCCC(=O)N[C@@H](CCC(=O)N[C@@H](CCC(=O)N[C@@H](CCC(=O)NCCCC[C@H](NC(=O)CCOCCOCCOCCOCCOCCOCCOCCOCCOCCOCCOCCOCCOCCOCCOCCOCCOCCOCCOCCOCCOCCOCCOCCOCCOCCOCCOCCOCCNC(=O)[C@H](CCCCNC(C)=O)NC(=O)[C@H](CCCCN)NC(=O)[C@H](CCCNC(=N)N)NC(=O)C(C)(C)NC(=O)[C@H](CO)NC(=O)[C@H](Cc1c[nH]c2ccccc12)NC(=O)[C@@H](NC(=O)[C@H](CO)NC(=O)[C@H](CCCC)NC(=O)CNC(=O)[C@H](CCC(=O)O)NC(=O)C(C)(C)NC(=O)C(C)(C)NC(=O)[C@@H](NC(=O)[C@H](CCCCNC(C)=O)NC(=O)[C@H](C)NC(=O)[C@H](CCCNC(=N)N)NC(=O)[C@@H](NC(=O)[C@H](CCCCN)NC(=O)[C@H](CCC(=O)O)NC(=O)[C@H](CCCNC(=N)N)NC(=O)CNC(=O)[C@H](CCC(=O)O)NC(=O)[C@H](CC(C)C)NC(C)=O)C(C)C)[C@@H](C)CC)[C@@H](C)O)C(N)=O)C(=O)O)C(=O)O)C(=O)O` [compound 49] (Ac-LEGREKVRAK(Ac)I[Aib][Aib]EG[Nle]STWS[Aib]RKK(Ac)[PEG28]K([γGlu-γGlu-γGlu-Stearoyl])-NH2), the maximal effect (Emax) came to 106%.

Broadly, the EC50 is the midpoint of the concentration-response curve. Turning to `CCCCCCCCCCCCCCCCCC(=O)N[C@@H](CCC(=O)N[C@@H](CCC(=O)N[C@@H](CCC(=O)NCCOCCOCC(=O)NCCOCCOCC(=O)NCCOCCOCC(=O)NCCCC[C@H](NC(=O)[C@H](CCCCNC(C)=O)NC(=O)[C@H](CCCCN)NC(=O)[C@H](CCCNC(=N)N)NC(=O)C(C)(C)NC(=O)[C@H](CO)NC(=O)[C@H](Cc1c[nH]c2ccc(O)cc12)NC(=O)[C@@H](NC(=O)[C@H](CO)NC(=O)[C@H](CCCC)NC(=O)CNC(=O)[C@H](CCC(=O)O)NC(=O)C(C)(C)NC(=O)C(C)(C)NC(=O)[C@@H](NC(=O)[C@H](CCCCNC(C)=O)NC(=O)[C@H](C)NC(=O)[C@H](CCCNC(=N)N)NC(=O)[C@@H](NC(=O)[C@H](CCCCN)NC(=O)[C@H](CCC(=O)O)NC(=O)[C@H](CCCNC(=N)N)NC(=O)CNC(=O)[C@H](CCC(=O)O)NC(=O)[C@H](CC(C)C)NC(C)=O)C(C)C)[C@@H](C)CC)[C@@H](C)O)C(N)=O)C(=O)O)C(=O)O)C(=O)O` [compound 158] (Ac-LEGREKVRAK(Ac)I[Aib][Aib]EG[Nle]ST[Trp(5-OH)]S[Aib]RKK(Ac)K([AEEA-AEEA-AEEA-γGlu-γGlu-γGlu-Stearoyl])-NH2), the EC50 worked out at 0.14 nM and the Emax amounted to 90%.

Consider `CCCCCCCCCCCCCCCC(=O)N[C@@H](CCC(=O)N[C@@H](CCC(=O)N[C@@H](CCC(=O)NCCCOCCOCCOCCCNC(=O)CCC(=O)NCCCOCCOCCOCCCNC(=O)CCC(=O)NCCCOCCOCCOCCCNC(=O)CCC(=O)NCCCC[C@H](NC(=O)[C@H](CCCCNC(C)=O)NC(=O)[C@H](C)NC(=O)[C@H](CCCNC(=N)N)NC(=O)[C@](C)(CCCCN)NC(=O)[C@H](CO)NC(=O)[C@H](Cc1ccccc1)NC(=O)[C@@H](NC(=O)[C@H](CO)NC(=O)[C@H](CCCC)NC(=O)CNC(=O)[C@H](CCC(=O)O)NC(=O)C(C)(C)NC(=O)C(C)(C)NC(=O)[C@@H](NC(=O)[C@H](CCCCNC(C)=O)NC(=O)[C@H](C)NC(=O)[C@H](CCCNC(=N)N)NC(=O)[C@@H](NC(=O)[C@H](CCCCN)NC(=O)[C@H](CCC(=O)O)NC(=O)[C@H](CCCNC(=N)N)NC(=O)CNC(=O)[C@H](CCC(=O)O)NC(=O)[C@H](CC(C)C)NC(C)=O)C(C)C)[C@@H](C)CC)[C@@H](C)O)C(N)=O)C(=O)O)C(=O)O)C(=O)O` [compound 183] (Ac-LEGREKVRAK(Ac)I[Aib][Aib]EG[Nle]STFS[αMeK]RAK(Ac)K([Suc-X8])-NH2), for which the EC50 is 0.08 nM and the Emax was 94%.

Turning to `CCCCCCCCCCCCCCCC(=O)N[C@@H](CCC(=O)N[C@@H](CCC(=O)N[C@@H](CCC(=O)NCCCC[C@H](NC(=O)COCC(=O)NCCCOCCOCCOCCCNC(=O)[C@H](CCCCNC(C)=O)NC(=O)[C@H](CCCCN)NC(=O)[C@H](CCCNC(=N)N)NC(=O)C(C)(C)NC(=O)[C@H](CO)NC(=O)[C@H](Cc1c[nH]c2ccccc12)NC(=O)[C@@H](NC(=O)[C@H](CO)NC(=O)[C@H](CCCC)NC(=O)CNC(=O)[C@H](CCC(=O)O)NC(=O)C(C)(C)NC(=O)C(C)(C)NC(=O)[C@@H](NC(=O)[C@H](CCCCNC(C)=O)NC(=O)[C@H](C)NC(=O)[C@H](CCCNC(=N)N)NC(=O)[C@@H](NC(=O)[C@H](CCCCN)NC(=O)[C@H](CCC(=O)O)NC(=O)[C@H](CCCNC(=N)N)NC(=O)CNC(=O)[C@H](CCC(=O)O)NC(=O)[C@H](CC(C)C)NC(C)=O)C(C)C)[C@@H](C)CC)[C@@H](C)O)C(N)=O)C(=O)O)C(=O)O)C(=O)O` [compound 175] (Ac-LEGREKVRAK(Ac)I[Aib][Aib]EG[Nle]STWS[Aib]RKK(Ac)-X13), the Emax came to 87%.
